Assay results reported in US8410075B2, “Mannich base N-oxide drugs” (Cascade Prodrug Inc., priority 2007, dated 2013).
One block for each compound: values may come before it.

Legend:
[1] = Hydrolysis of Mannich bases; assay type: physicochemical
Experimental: We observed that indole-derived Mannich bases 30, 32 and 34, unlike the other Mannich bases herein described, were quite stable toward hydrolysis. For example, only 30% of Mannich base 34 was hydrolyzed after 80 h in D2O.

[2] = observed by Sloan et al.; could not be isolated as a stable molecule; cited from earlier work
[3] = Reduction of 5-FU-derived Mannich base N-oxides with triphenylphosphine in CDCl3 and hydrolysis to 5-fluorouracil (1H and 19F NMR); assay type: physicochemical; conditions: mixture of N-oxides 3 and 4, 2 equiv triphenylphosphine in CDCl3 at RT, 70-h time period
Experimental: Triphenylphosphine is known to reduce N-oxides to the corresponding amines See Gallos, J. K. and Argyropoulos, N. G. Synthesis 1:83-86 (1991). A mixture of N-oxides 3 and 4 was dissolved in CDCl3 and then treated with 2 equiv of triphenylphosphine in CDCl3 at RT and monitored by ^1H and ^19F NMR spectroscopy. According to the ^1H and ^19F NMR spectra, the N-oxides underwent reduction and spontaneous hydrolysis to 5-fluorouracil to the extent of about 90% over a 70-h time period. Thus, not only are the N-oxide groups reduced back to the corresponding Mannich bases, but also the Mannich bases undergo hydrolysis back to 5-FU in the presence of adventitious water.

[4] = Stability of Mannich base N-oxides in D2O monitored by 1H NMR; assay type: physicochemical; conditions: for at least several days
Experimental: The mixture of 3 and 4 was rechromatographed on a Chromatotron with 5:3:0.3 dichloromethane/methanol/ammonia as eluent to give 200 mg (22%) of the N^3 isomer 3 (faster moving isomer on TLC) which was pure by TLC, ^1H and ^19F NMR spectroscopy. The ^1H and ^19F NMR spectra of 3 (D2O) were consistent with the assigned structure. APCI MS (m/e): Calcd. for C9H12FN3O4 (M+H), 246.0; found (M+H) 246.0. Continued elution gave 140 mg (15% yield) of the N^1 isomer 4 (slower moving spot on TLC), which was pure by TLC, ^1H and ^19F NMR spectroscopy. APCI MS (m/e): Calcd. for C9H12FN3O4 (M+H), 246.0; found (M+H) 246.0. N-oxides 3, 4, and 5 were stable in D2O for at least several days as monitored by ^1H NMR spectroscopy. The structures of Mannich base N-oxides 3 and 4 were confirmed by single crystal x-ray analysis. Example 6

[5] = Rearrangement of Mannich base N-oxides to O-substituted hydroxylamine isomers in solution (NMR); assay type: physicochemical; conditions: for conversion to rearranged product 20: chloroform solution at RT for 72 h
Excerpt: Examples 5-14 describe the synthesis of several Mannich bases (structures B and structures G in Chart 1) and the corresponding Mannich base N-oxides (structures C and H). In cases where R═H in structure A, the synthesis of the rearranged N-oxide isomer D is also described. […] However, when R═H in A, the Mannich base N-oxide C (R═H) undergoes rearrangement over time to the corresponding isomer D. Rearrangement tends to be very slow (several days) in aqueous solution but more rapid (a few hours) in CDCl3 and depends to some extent on which secondary amine was used to prepare the Mannich base. In one case, the hydrochloride salt (structure E) of a Mannich base N-oxide C where R═H was prepared. Mannich base N-oxide salt E was stable toward rearrangement.
N-(Dimethyl-N′-oxido-aminomethyl)-benzamide (13) and N-(Dimethyl-aminooxymethyl)-benzamide (14). Mannich base 12 (0.18 g, 0.001 mol) was dissolved in dichloromethane (5 mL) and then solid MCPBA (0.26 g, 0.0015 mol) was added to the stirred solution in an ice/water bath. After stirring for 20 min as the solution warmed to RT, the solvent was evaporated. The residue was chromatographed on a Chromatotron with dichloromethane/methanol as eluent. Evaporation of the eluent in the cold is accompanied by rearrangement, giving 150 mg (66%) of the mixture Mannich base N-oxide 13 (Rf˜0.2 in dichloromethane/methanol, 5:1) and the rearranged benzamide derivative 14 (Rf˜0.8 in dichloromethane/methanol, 5:1). A sample of the mixture was allowed to stand in CDCl3 at RT while it was monitored by ^1H NMR.
N-(Piperidin-1-oxido-1-yl-methyl)-benzamide (16) and N-(Piperidin-1-yloxymethyl)-benzamide (17). Mannich base 15 (0.2 g, 0.92 mmol) was dissolved in 2 mL of dichloromethane and then the solution was added to a stirred solution of MCPBA (0.24 g, 1. 14 mmol) in 2 mL of dichloromethane in an ice/water bath. After 5 min of stirring at RT, the solvent was evaporated and the residue was chromatographed on a Chromatotron with dichloromethane/methanol mixture, 5:1 to 5:3 as eluent. The desired fractions were combined and the solvents were evaporated to give Mannich base N-oxide 16 (0.15 g, 72% yield). […] The ^1H and ^13C NMR spectra of 17 are consistent with the assigned structure. […] It was difficult to get clean NMR spectra of 16 in any solvent.
N-(Morpholin-4-oxido-4-ylmethyl)-benzamide (19) and N-(Morpholin-4-oxido-4-ylmethyl)-benzamide Hydrochloride (21) and N-(Morpholin-4-yloxymethyl)-benzamide (20). Mannich base 18 (0.283 g, 1.3 mmol) was dissolved in dichloromethane (6 mL) and the solution was cooled in an ice/water bath. To this stirred solution MCPBA (0.3 g, 1.7 mmol) was added as a solid. After 10 min the reaction mixture was divided in half. The first half was evaporated and chromatographed on a Chromatotron with dichloromethane/methanol 5:0.5 to 5:2 as eluent giving mostly rearranged product 20 (0.1 g, 67%). […] The ^1H and ^13C NMR spectra of 20 were consistent with the assigned structure. APCI MS (m/z): Calcd. for 20, C12H17N2O3 (M+1) 236.1; Found 236.1 A sample of 20 was recrystallized from EtOAc/hexanes giving crystals that were subject to x-ray analysis.
The second half of the MCPBA oxidation solution was extracted with 1N HCl. The water layer was evaporated to dryness and then the residue was treated with dichloromethane and re-evaporated to give the N-oxide HCl salt 21 (0.11 g, 73%) as a waxy solid which was stable in CDCl3 solution for several days. The ^1H NMR spectra were consistent with the assigned structure. […] A sample of 21 was recrystallized from MeOH/Et2O giving crystals that were subject to x-ray analysis. APCI MS (m/z APCI MS (m/z): Calcd. 21 C12H17N2O3 (M+1) 236.1; Found 236.1.

Compound: CN(C)Cn1ccc2ccccc21 [Mannich base 32, N-(Dimethylaminomethyl)-indole]
stability toward hydrolysis [1]: quite stable

Compound: O=c1c(F)cn(CN2CCOCC2)c(=O)n1CN1CCOCC1 [Mannich base 2, 5-Fluoro-1,3-bis-morpholin-4-ylmethyl-1H-pyrimidine-2,4-dione]
stability toward hydrolysis [1]: extreme sensitivity

Compound: CN(C)Cn1cc(F)c(=O)n(CN(C)C)c1=O [Mannich base 6, 1,3-Bis-dimethylaminomethyl-5-fluoro-1H-pyrimidine-2,4-dione]
sensitivity toward hydrolysis [2]: very sensitive

Compound: O=c1[nH]cc(F)c(=O)n1C[N+]1([O-])CCOCC1 [Mannich base N-oxide 3, 5-Fluoro-3-(4-oxido-morpholin-4-yl-methyl)-1H-pyrimidine-2,4-dione]
extent of reduction and spontaneous hydrolysis to 5-fluorouracil [3]: about 90%
stability in D2O [4]: stable

Results, then the compound that gave them:

extent of reduction and spontaneous hydrolysis to 5-fluorouracil [3]: about 90%
stability in D2O [4]: stable
Compound: O=c1[nH]c(=O)n(C[N+]2([O-])CCOCC2)cc1F [Mannich base N-oxide 4, 5-fluoro-1-(4-oxido-morpholin-4-yl-methyl)-1H-pyrimidine-2,4-dione]

stability in D2O [4]: stable
Compound: O=c1c(F)cn(C[N+]2([O-])CCOCC2)c(=O)n1C[N+]1([O-])CCOCC1 [Mannich base N-oxide 5, 5-fluoro-1,3-bis-(4-oxido-morpholin-4-yl-methyl)-1H-pyrimidine-2,4-dione]

conversion to the rearranged product ([5]; CDCl3 at RT, over several hours, 1H NMR): Essentially complete conversion
Compound: N-(Dimethyl-N′-oxido-aminomethyl)-benzamide [Mannich base N-oxide 13]

stability in CDCl3 solution ([5]; CDCl3 solution, several days): stable
conversion to rearranged product 20 [5]: no rearranged product 20 was formed
Compound: Cl.O=C(NC[N+]1([O-])CCOCC1)c1ccccc1 [N-oxide HCl salt 21, N-(Morpholin-4-oxido-4-ylmethyl)-benzamide Hydrochloride]

conversion to rearranged product 20 [5]: clean conversion
Compound: O=C(NC[N+]1([O-])CCOCC1)c1ccccc1 [Mannich base N-oxide 19, N-(Morpholin-4-oxido-4-ylmethyl)-benzamide]

rearranged product 17 in 1H NMR spectrum ([5]; D2O): 10-20%
onset of rearrangement of 16 to 17 ([5]; after adding CDCl3): starts immediately
Compound: O=C(NC[N+]1([O-])CCCCC1)c1ccccc1 [Mannich base N-oxide 16, N-(Piperidin-1-oxido-1-yl-methyl)-benzamide]
